What was measured:
human tissue kallikrein = human tissue kallikrein (Homo sapiens (Human), UniProt P06870); assay: Inhibition of tissue kallikrein enzymatic activity (tKal); type: biochemical; details: human tissue kallikrein 5 nM, N-acetyl-KPR-AFC substrate, 25° C.
Protocol: Compounds were assayed with human tissue kallikrein (RayBiotech, Cat #228-10996 or Evotec, final concentration 5 nM) in 50 mM HEPES, 150 mM NaCl, 5 mM CaCl2, 0.1% PEG pH 7.4 at 25° C. in a Corning 3575 non-binding surface microplate. Compounds were tested in 10-point dose titrations starting at 166.67 uM with a 3-fold dilution series. Tissue kallikrein enzymatic activity was determined by measuring the rate of cleavage of N-acetyl-KPR-AFC substrate (Sigma, Cat #C6608, final concentration 100 uM) by continuously monitoring the fluorescence at 400/505 nm using a Tecan Safire plate-reader. The initial reaction rates (0 to 20 minutes) were used to determine percent inhibition. The % Inhibition for each data point was recalculated from the RFU/min data and analyzed using the log(inhibitor) vs. response four parameters equation with the GraphPad Prism software.

[1] = Rat screening IV/PO pharmacokinetics; type: in vivo; details: male, plasma, mean residence time, IV/PO procedure
Protocol: Plasma pharmacokinetic parameters for clearance, volume of distribution, half-life, mean residence time (MRT) and oral bioavailability (% F)—were determined in rats from oral administration and IV administration studies. 4 male rats, typically weighing 225-260 gram, were fasted overnight prior to dosing. Compounds were prepared for oral and IV dosing by addition to a vehicle, depending on the dose used. For a typical preparation, 1 mg per mL (IV) or 1.5 mg per mL (oral) of test compound was added to vehicle comprised of 20% dimethyl sulfoxide (DMSO), 60% polyethylene glycol 400 (PEG400) and 20% water. IV formulation was administered to 2 rats via pre-cannulated jugular vein, and oral dosing was administered to 2 rats via oral gavage. Blood was collected by pre-cannulated artery, typically at predose, 2 min, 8 min, 15 min, 30 min, and 1, 2, 4, 6, and 8 hr postdose for IV, and at predose, 15 min, 30 min, and 1, 2, 4, 6, 8 hr for oral dosing. Samples were collected in K2EDTA tubes, stored on ice, and centrifuged. Plasma was transferred to a micro titer plate and stored at −70° C. until analysis. Plasma samples were extracted using protein precipitation and analyzed by liquid chromatography separation followed by mass spec detection (LCMS/MS), using a standard curve for each compound. Plasma pharmacokinetic parameters were calculated for IV and oral dosing data by non-compartmental methods. Oral bioavailability was determined as the ratio of the dose-normalized plasma area under the curve (AUC) following oral dosing vs. IV dosing.

[2] = Dog screening IV/PO pharmacokinetics; type: in vivo; details: male, plasma, mean residence time, IV/PO procedure
Protocol: Plasma pharmacokinetic parameters for clearance, volume of distribution, half-life, mean residence time (MRT) and oral bioavailability were determined in dogs from oral administration and IV administration studies. 4 male dogs, typically weighing 8-12 kilograms, were fasted overnight prior to dosing. Compounds were prepared for oral and IV dosing by addition to a vehicle, depending on the dose used. For a typical preparation, 1 mg per mL (IV) or 1.5 mg per mL (oral) of test compound was added to vehicle comprised of 20% dimethyl sulfoxide (DMSO), 60% polyethylene glycol 400 (PEG400) and 20% water. IV formulation was administered to 2 dogs via the saphenous or cephalic vein, and oral dosing was administered to 2 dogs via oral gavage. Blood was collected by the cephalic or jugular vein, typically at predose, 2 min, 8 min, 15 min, 30 min, and 1, 2, 4, 6, 8 and 24 hr postdose for IV, and at predose, 15 min, 30 min, and 1, 2, 4, 6, 8, and 24 hr for oral dosing. Samples were collected in K2EDTA tubes, stored on ice, and centrifuged. Plasma was transferred to a micro titer plate and stored at −70° C. until analysis. Plasma samples were extracted using protein precipitation and analyzed by liquid chromatography separation followed by mass spec detection (LCMS/MS), using a standard curve for each compound. Plasma pharmacokinetic parameters were calculated for IV and oral dosing data by non-compartmental methods. Oral bioavailability was determined as the ratio of the dose-normalized plasma area under the curve (AUC) following oral dosing vs. IV dosing.

[3] = Dog cassette IV pharmacokinetics; type: in vivo; details: male, plasma, mean residence time, cassette IV procedure
Protocol: Plasma pharmacokinetic parameters for clearance, volume of distribution, half-life, and mean residence time (MRT) were determined in dogs from IV cassette administration studies. 2 male dogs, typically weighing 8-12 kilograms, were fasted overnight prior to dosing. Compounds were prepared for IV dosing by addition to a vehicle, depending on the dose used. For a typical preparation, 1 mg per mL (IV) of up to 5 test compounds were added to vehicle comprised of 20% dimethyl sulfoxide (DMSO), 60% polyethylene glycol 400 (PEG400) and 20% water. IV formulation was administered to 2 dogs via the saphenous or cephalic vein. Blood was collected by the cephalic or jugular vein, typically at predose, 2, 8, 15, 30 min, 1, 2, 4, 6, 8 and 24 hr postdose. Samples were collected in K2EDTA tubes, stored on ice, and centrifuged. Plasma was transferred to a micro titer plate and stored at −70° C. until analysis. Plasma samples were extracted using protein precipitation and analyzed by liquid chromatography separation followed by mass spec detection (LCMS/MS), using a standard curve for each compound. Plasma pharmacokinetic parameters were calculated by non-compartmental methods.

human tissue kallikrein, sequence (P06870 25-262): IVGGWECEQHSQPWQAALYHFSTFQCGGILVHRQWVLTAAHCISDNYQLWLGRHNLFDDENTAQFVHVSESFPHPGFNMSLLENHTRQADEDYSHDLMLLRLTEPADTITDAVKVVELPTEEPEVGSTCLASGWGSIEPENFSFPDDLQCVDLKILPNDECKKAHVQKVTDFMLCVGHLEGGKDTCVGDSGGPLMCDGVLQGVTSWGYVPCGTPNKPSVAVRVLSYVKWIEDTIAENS

IC50 (human tissue kallikrein) | MRT [1] | MRT [2] | MRT [3] | Structure (SMILES)
90 µM | 5.7 h | 11 h | – | COC(=O)Nc1ccc2c(c1)NC(=O)C(C)(C)CCC[C@H](c1ccc(-c3cc(F)ccc3-n3cc(C(F)(F)F)cn3)c[n+]1[O-])c1nc-2c(C)[nH]1 [Example 2, (R.Z)-5-(5-fluoro-2-(4-(trifluoromethyl)-1H-pyrazol-1-yl)phenyl)-2-(2^4-((methoxycarbonyl)amino)-1^5,5,5-trimethyl-4-oxo-1^1H-3-aza-1(4,2)-imidazola-2(1,2)-benzenacyclononaphane-9-yl)pyridine 1-oxide]
> 167 µM | 4.5 h | 10 h | – | COC(=O)Nc1ccc2c(c1)NC(=O)C(C)(C)CCC[C@H](c1ccc(-c3cc(F)ccc3-c3cnn(C(F)(F)F)c3)c[n+]1[O-])c1nc-2c(C)[nH]1 [Example 5, (R,Z)-5-(5-fluoro-2-(1-(trifluoromethyl)-1H-pyrazol-4-yl)phenyl)-2-(2^4-((methoxycarbonyl)amino)-1^5,5,5-trimethyl-4-oxo-1^1H-3-aza-1(4,2)-imidazola-2(1,2)-benzenacyclononaphane-9-yl)pyridine 1-oxide]

The next lines start with the molecule.

Structure (SMILES) | IC50 (human tissue kallikrein) | MRT [1] | MRT [2] | MRT [3]
COC(=O)Nc1ccc2c(c1)NC(=O)C(C)(C)CCC[C@H](c1ccc(-c3c(-n4cc(C(F)(F)F)cn4)ccc(F)c3F)c[n+]1[O-])c1nc-2c(C)[nH]1 [Example 1, (R,Z)-5-(2,3-difluoro-6-(4-(trifluoromethyl)-1H-pyrazol-1-yl)phenyl)-2-(2^4-((methoxycarbonyl)amino)-1^5,5,5-trimethyl-4-oxo-1^1H-3-aza-1(4,2)-imidazola-2 (1,2)-benzenacyclononaphane-9-yl)pyridine 1-oxide] | > 167 µM | 5.8 h | 10 h | –
COC(=O)Nc1ccc2c(c1)NC(=O)C(C)(C)CCC[C@H](c1ccc(-c3cc(Cl)ccc3-n3cc(C(F)(F)F)cn3)c[n+]1[O-])c1nc-2c(C)[nH]1 [Example 3] | > 167 µM | 11 h | – | 10 h
COC(=O)Nc1ccc2c(c1)NC(=O)C(C)(C)CCC[C@H](c1ccc(-c3cc(Cl)ccc3-n3cc(C(F)F)cn3)c[n+]1[O-])c1nc-2c(C)[nH]1 [Example 4, (R,Z)-5-(5-chloro-2-(4-(difluoromethyl)-1H-pyrazol-1-yl)phenyl)-2-(2^4-((methoxycarbonyl)amino)-1^5,5,5-trimethyl-4-oxo-1^1H-3-aza-1(4,2)-imidazola-2(1,2)-benzenacyclononaphane-9-yl)pyridine 1-oxide] | > 167 µM | 2.7 h | 8.7 h | –
COC(=O)Nc1ccc2c(c1)NC(=O)C(C)(C)CCC[C@H](c1ccc(-c3cc(Cl)cnc3OC(F)F)c[n+]1[O-])c1nc-2c(C)[nH]1 [Example 6, (R,Z)-5′-chloro-2′-(difluoromethoxy)-6-(2^4-((methoxycarbonyl)amino)-1^5,5,5-trimethyl-4-oxo-1^1H-3-aza-1(4,2)-imidazola-2(1,2)-benzenacyclononaphane-9-yl)-[3,3′-bipyridine]1-oxide] | – | 5.6 h | 14.5 h | –

Reference: patent publication US12344616B2, “Factor XIa inhibitors” (Merck Sharp & Dohme LLC, priority 2018, dated 2025)
